Measurements as given in patent US20080009418A1, “Selective Inhibitors” (Alchemia LTD., priority 2004, published 2008).

Tests used:
[1] = molecular target: T1, Human κ-Opioid (KOP) (Homo sapiens, UniProt P41145); test: Radioligand binding, human κ-opioid (KOP) membranes, filtration, [3H]-Diprenorphine; details: compound at 10 μM, [3H]-Diprenorphine
T1 construct: purchased Perkin Elmer Biosignal
In short: (§1)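 Filtration binding on cloned human receptor membranes (1 Unit/well), [125I]-Substance P for NK1 and [3H]-Diprenorphine for KOP, 1 h at room temperature. Filters PEI-presoaked, washed with cold 50 mM Tris-HCl pH 7.4, counted by scintillation; percent inhibition calculated, reference ligand defining non-specific binding.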

[2] = molecular target: T2, Human melanocortin (MC5) (Homo sapiens, UniProt P33032); test: Radioligand binding, human melanocortin MC5 membranes, FlashPlate, [125I]-NDP-αMSH; details: compound at 10 μM, [125I]-NDP-αMSH
T2 construct: purchased Perkin Elmer Biosignal
In short: (§2)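 Cloned human receptor membranes were coated onto FlashPlate wells and incubated with radioligand and compound (added from a 0.5 mM DMSO daughter plate) for 1 hour at room temperature in the dark. Scintillation counting gave percent inhibition, with DMSO defining total and reference ligand defining non-specific binding.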

[3] = molecular target: T3, Human Melanocortin (MC4) (Homo sapiens, UniProt P32245); test: Radioligand binding, human melanocortin MC4 membranes, FlashPlate, [125I]-NDP-αMSH; details: compound at 10 μM, [125I]-NDP-αMSH
T3 construct: purchased Perkin Elmer Biosignal
In short: as §2

[4] = molecular target: T4, Human neurokinin (NK1) (Homo sapiens, UniProt P25103); test: Radioligand binding, human neurokinin NK1 membranes, filtration, [125I]-Substance P; details: compound at 10 μM, [125I]-Substance P
T4 construct: purchased Perkin Elmer Biosignal
In short: as §1

[5] = molecular target: T5, Human opioid (ORL1) (Homo sapiens, UniProt P41146); test: Radioligand binding, human opioid ORL1 membranes, FlashPlate, [125I]-Nociceptin; details: compound at 10 μM, [125I]-Nociceptin
T5 construct: purchased Perkin Elmer Biosignal
In short: as §2

[6] = molecular target: T6, Mouse urotensin (mUR2) (Mus musculus, UniProt Q8VIH9); test: Radioligand binding, mouse urotensin mUR2 membranes, FlashPlate, [125I]-Urotensin II; details: compound at 10 μM, [125I]-Urotensin II
T6 construct: purchased Perkin Elmer Biosignal
T6 sequence (Q8VIH9 1-385): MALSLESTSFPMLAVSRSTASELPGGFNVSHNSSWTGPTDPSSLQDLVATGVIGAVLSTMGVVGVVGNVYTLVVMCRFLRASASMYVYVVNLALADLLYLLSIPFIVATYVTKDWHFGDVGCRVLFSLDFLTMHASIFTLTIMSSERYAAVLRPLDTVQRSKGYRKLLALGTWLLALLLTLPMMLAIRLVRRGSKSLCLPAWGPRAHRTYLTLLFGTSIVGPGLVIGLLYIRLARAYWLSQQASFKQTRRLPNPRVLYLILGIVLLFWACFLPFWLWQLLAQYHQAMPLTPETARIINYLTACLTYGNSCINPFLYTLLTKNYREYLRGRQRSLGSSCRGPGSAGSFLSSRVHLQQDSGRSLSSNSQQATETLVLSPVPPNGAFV
In short: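 Cloned mouse urotensin (mUR2) receptor membranes from Perkin Elmer Biosignal were immobilized in FlashPlate microplates using a proprietary coating. Each well got 19.5 μl buffer, then 0.5 μl of DMSO, reference ligand, or compound. Adding 5 μl of [125I]-Urotensin II, diluted to 5× final concentration in binding buffer, started binding. Plates were sealed with TopSeal-A and incubated 1 hour at room temperature in the dark. Wells were counted for 30 seconds each on a TopCount after a 60-second delay, and percentage inhibition was calculated.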

[7] = molecular target: T7, Human Melanocortin (MC3) (Homo sapiens, UniProt P41968); test: Radioligand binding, human melanocortin MC3 membranes, FlashPlate, [125I]-NDP-αMSH; details: compound at 10 μM, [125I]-NDP-αMSH
T7 construct: purchased Perkin Elmer Biosignal
In short: as §2

[8] = molecular target: T8, Human μ-opioid (MOP) (Homo sapiens, UniProt P35372); test: Radioligand binding, human μ-opioid (MOP) membranes, FlashPlate, [3H]-Naloxone; details: compound at 10 μM, [3H]-Naloxone
T8 construct: purchased Perkin Elmer Biosignal
In short: as §2

[9] = molecular target: T9, Human melanin-concentrating hormone (MCH1) (Homo sapiens, UniProt Q99705); test: Radioligand binding, human melanin-concentrating hormone MCH1 membranes, FlashPlate, [125I]-S36057; details: compound at 10 μM
T9 construct: purchased Perkin Elmer Biosignal
In short: as §2

[10] = molecular target: T10, Human neuropeptide Y (NPY-Y1) (Homo sapiens, UniProt P25929); test: Radioligand binding, human neuropeptide Y NPY-Y1 membranes, FlashPlate, [125I]-PYY; details: compound at 10 μM, [125I]-PYY
T10 construct: purchased Perkin Elmer Biosignal
T10 sequence (P25929 1-384): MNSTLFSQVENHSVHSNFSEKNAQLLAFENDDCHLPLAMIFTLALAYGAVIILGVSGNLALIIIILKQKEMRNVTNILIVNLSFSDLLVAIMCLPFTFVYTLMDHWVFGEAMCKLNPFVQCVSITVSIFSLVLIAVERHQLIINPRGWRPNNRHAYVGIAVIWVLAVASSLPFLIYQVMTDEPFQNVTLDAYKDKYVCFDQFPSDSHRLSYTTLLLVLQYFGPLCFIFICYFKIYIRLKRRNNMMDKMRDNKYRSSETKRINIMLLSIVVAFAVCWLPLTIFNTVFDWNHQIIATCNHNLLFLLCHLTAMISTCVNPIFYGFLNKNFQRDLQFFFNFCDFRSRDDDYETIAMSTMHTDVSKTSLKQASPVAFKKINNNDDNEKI
In short: as §2

[11] = molecular target: T11, Human δ-opioid (DOP) (Homo sapiens, UniProt P41143); test: Radioligand binding, human δ-opioid (DOP) membranes, FlashPlate, [3H]-Bremazocine; details: compound at 10 μM, [3H]-Bremazocine
T11 construct: purchased Perkin Elmer Biosignal
In short: as §2

[12] = [125I]-S36057, human MCH1 membranes

T8 sequence (P35372 whole entry): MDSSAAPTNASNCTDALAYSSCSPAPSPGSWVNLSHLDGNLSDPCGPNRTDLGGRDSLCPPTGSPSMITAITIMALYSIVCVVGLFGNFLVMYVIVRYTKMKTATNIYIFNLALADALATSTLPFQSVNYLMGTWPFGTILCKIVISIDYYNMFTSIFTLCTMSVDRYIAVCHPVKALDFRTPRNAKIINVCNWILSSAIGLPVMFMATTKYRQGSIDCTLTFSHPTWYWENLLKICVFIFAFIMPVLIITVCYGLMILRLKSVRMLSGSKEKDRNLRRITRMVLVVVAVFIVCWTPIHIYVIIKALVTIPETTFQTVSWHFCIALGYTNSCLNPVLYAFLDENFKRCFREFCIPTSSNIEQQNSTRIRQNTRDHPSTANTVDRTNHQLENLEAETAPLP
T2 sequence (P33032 whole entry): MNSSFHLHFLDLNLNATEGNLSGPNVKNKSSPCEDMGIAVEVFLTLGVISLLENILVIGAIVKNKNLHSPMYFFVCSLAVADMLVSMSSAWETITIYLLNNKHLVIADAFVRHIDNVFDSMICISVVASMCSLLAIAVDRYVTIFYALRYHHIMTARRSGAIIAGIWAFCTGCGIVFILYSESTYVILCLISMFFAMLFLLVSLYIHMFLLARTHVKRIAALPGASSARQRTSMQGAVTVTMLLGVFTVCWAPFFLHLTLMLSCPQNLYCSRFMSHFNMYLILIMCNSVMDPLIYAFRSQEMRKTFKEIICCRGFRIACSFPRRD
T9 sequence (Q99705 whole entry): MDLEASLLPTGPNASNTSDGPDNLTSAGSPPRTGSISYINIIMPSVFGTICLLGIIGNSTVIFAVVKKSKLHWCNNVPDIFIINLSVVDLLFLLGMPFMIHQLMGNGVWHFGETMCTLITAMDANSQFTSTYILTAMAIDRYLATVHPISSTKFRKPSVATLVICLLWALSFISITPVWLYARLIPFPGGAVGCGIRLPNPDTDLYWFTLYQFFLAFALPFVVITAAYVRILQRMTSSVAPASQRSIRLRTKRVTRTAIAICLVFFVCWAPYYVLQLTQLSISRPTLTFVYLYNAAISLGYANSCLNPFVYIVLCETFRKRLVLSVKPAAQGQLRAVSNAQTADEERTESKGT
T7 sequence (P41968 whole entry): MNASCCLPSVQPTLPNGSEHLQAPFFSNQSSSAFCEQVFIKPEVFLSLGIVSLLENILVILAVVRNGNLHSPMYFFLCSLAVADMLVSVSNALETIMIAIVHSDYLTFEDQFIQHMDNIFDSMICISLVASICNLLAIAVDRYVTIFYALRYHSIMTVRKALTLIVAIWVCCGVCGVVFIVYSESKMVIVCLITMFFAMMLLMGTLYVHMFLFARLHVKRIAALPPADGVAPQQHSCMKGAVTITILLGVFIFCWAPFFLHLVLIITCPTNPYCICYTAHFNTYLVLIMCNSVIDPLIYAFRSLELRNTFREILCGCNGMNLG
T1 sequence (P41145 whole entry): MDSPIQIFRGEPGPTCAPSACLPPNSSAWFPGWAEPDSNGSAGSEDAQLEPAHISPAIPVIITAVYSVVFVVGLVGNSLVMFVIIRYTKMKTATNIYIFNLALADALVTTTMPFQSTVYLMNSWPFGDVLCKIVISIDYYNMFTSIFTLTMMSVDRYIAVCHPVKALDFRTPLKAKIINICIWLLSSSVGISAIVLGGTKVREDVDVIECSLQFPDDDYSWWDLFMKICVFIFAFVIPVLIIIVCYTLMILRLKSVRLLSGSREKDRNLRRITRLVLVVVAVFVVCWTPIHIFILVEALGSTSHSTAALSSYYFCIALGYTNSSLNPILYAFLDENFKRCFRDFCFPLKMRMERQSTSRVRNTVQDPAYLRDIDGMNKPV
T3 sequence (P32245 whole entry): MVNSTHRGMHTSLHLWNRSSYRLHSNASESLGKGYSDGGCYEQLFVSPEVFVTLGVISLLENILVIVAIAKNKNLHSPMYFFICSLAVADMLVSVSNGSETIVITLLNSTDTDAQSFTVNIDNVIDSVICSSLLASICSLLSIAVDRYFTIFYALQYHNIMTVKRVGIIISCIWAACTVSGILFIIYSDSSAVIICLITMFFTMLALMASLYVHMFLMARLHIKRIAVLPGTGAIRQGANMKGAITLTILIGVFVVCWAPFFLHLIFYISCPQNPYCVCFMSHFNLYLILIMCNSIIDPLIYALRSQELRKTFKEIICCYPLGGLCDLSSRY
T11 sequence (P41143 whole entry): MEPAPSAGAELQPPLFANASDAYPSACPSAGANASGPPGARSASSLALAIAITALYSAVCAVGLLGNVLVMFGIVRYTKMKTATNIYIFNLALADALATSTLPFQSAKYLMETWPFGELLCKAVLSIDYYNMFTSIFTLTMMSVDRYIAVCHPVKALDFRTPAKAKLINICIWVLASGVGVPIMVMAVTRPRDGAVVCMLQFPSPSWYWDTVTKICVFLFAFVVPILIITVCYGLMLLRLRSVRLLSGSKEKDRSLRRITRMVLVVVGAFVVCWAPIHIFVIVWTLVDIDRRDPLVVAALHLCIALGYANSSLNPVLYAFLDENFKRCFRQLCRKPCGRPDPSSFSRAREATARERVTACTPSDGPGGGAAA
T4 sequence (P25103 whole entry): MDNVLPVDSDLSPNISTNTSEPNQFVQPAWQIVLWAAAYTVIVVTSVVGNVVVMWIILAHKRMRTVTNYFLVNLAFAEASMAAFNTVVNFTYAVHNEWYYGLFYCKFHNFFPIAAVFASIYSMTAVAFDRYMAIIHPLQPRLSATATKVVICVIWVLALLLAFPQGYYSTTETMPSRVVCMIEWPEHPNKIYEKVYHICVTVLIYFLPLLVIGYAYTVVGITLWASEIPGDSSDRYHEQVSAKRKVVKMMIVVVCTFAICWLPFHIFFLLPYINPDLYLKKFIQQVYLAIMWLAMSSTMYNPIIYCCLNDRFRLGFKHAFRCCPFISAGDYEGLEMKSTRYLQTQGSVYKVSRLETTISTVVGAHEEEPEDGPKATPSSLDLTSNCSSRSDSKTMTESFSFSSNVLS
T5 sequence (P41146 whole entry): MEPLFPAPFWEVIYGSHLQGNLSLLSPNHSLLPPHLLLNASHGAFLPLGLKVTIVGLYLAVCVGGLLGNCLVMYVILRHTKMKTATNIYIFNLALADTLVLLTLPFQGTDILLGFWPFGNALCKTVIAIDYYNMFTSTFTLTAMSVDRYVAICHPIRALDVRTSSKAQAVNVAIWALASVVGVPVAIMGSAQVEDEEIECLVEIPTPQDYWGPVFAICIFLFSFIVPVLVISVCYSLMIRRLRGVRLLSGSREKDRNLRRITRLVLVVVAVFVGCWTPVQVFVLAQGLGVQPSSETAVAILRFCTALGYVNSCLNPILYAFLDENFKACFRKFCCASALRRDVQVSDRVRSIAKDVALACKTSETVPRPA

Compound: N=C(N)NCC(=O)NC1C(OCc2ccc(Cl)cc2)OC(COCc2ccc(Cl)cc2)C(O)C1OCc1ccc(-c2ccccc2)cc1 (stereo not shown) [compound 425]
- A2: inhibition of radioligand binding ([1]; human KOP membranes): − (“−” indicates less than 50% inhibition at 10 μM)
- A5: inhibition of radioligand binding ([2]; human MC5 membranes): + (“+” indicates greater than 50% inhibition at 10 μM)
- A4: inhibition of radioligand binding ([3]; human MC4 membranes): + (“+” indicates greater than 50% inhibition at 10 μM)
- A8: inhibition of radioligand binding ([4]; human NK1 membranes): + (“+” indicates greater than 50% inhibition at 10 μM)
- A10: inhibition of radioligand binding ([5]; human ORL1 membranes): + (“+” indicates greater than 50% inhibition at 10 μM)
- A11: inhibition of radioligand binding ([6]; mouse mUR2 membranes): − (“−” indicates less than 50% inhibition at 10 μM)
- A3: inhibition of radioligand binding ([7]; human MC3 membranes): + (“+” indicates greater than 50% inhibition at 10 μM)
- A7: inhibition of radioligand binding ([8]; human MOP membranes): − (“−” indicates less than 50% inhibition at 10 μM)
- A6: inhibition of radioligand binding [9, 12]: + (“+” indicates greater than 50% inhibition at 10 μM)
- A9: inhibition of radioligand binding ([10]; human NPY-Y1 membranes): − (“−” indicates less than 50% inhibition at 10 μM)
- A1: inhibition of radioligand binding ([11]; human DOP membranes): − (“−” indicates less than 50% inhibition at 10 μM)

Compound: NCCC(=O)NC1C(OCc2ccc3ccccc3c2)OC(COCc2ccc(Cl)cc2)C(O)C1OCc1ccc2ccccc2c1 (stereo not shown) [compound 386]
- A2: inhibition of radioligand binding ([1]; human KOP membranes): − (“−” indicates less than 50% inhibition at 10 μM)
- A5: inhibition of radioligand binding ([2]; human MC5 membranes): + (“+” indicates greater than 50% inhibition at 10 μM)
- A4: inhibition of radioligand binding ([3]; human MC4 membranes): + (“+” indicates greater than 50% inhibition at 10 μM)
- A8: inhibition of radioligand binding ([4]; human NK1 membranes): + (“+” indicates greater than 50% inhibition at 10 μM)
- A10: inhibition of radioligand binding ([5]; human ORL1 membranes): − (“−” indicates less than 50% inhibition at 10 μM)
- A11: inhibition of radioligand binding ([6]; mouse mUR2 membranes): − (“−” indicates less than 50% inhibition at 10 μM)
- A3: inhibition of radioligand binding ([7]; human MC3 membranes): + (“+” indicates greater than 50% inhibition at 10 μM)
- A7: inhibition of radioligand binding ([8]; human MOP membranes): − (“−” indicates less than 50% inhibition at 10 μM)
- A6: inhibition of radioligand binding [9, 12]: − (“−” indicates less than 50% inhibition at 10 μM)
- A9: inhibition of radioligand binding ([10]; human NPY-Y1 membranes): − (“−” indicates less than 50% inhibition at 10 μM)
- A1: inhibition of radioligand binding ([11]; human DOP membranes): − (“−” indicates less than 50% inhibition at 10 μM)

Compound: CSC1O[C@H](COCc2ccc(Cl)cc2)[C@@H](O)[C@@H](OCc2ccc(Cl)cc2)[C@H]1NC(=O)CCCNC(=N)N (stereo partly shown) [compound 274]
- A2: inhibition of radioligand binding ([1]; filtration): − (“−” indicates less than 50% inhibition at 10 μM)
- A5: inhibition of radioligand binding ([2]; FlashPlate): − (“−” indicates less than 50% inhibition at 10 μM)
- A4: inhibition of radioligand binding ([3]; FlashPlate): − (“−” indicates less than 50% inhibition at 10 μM)
- A8: inhibition of radioligand binding ([4]; filtration): + (“+” indicates greater than 50% inhibition at 10 μM)
- A10: inhibition of radioligand binding ([5]; FlashPlate): − (“−” indicates less than 50% inhibition at 10 μM)
- A11: inhibition of radioligand binding ([6]; FlashPlate): − (“−” indicates less than 50% inhibition at 10 μM)
- A3: inhibition of radioligand binding ([7]; FlashPlate): − (“−” indicates less than 50% inhibition at 10 μM)
- A7: inhibition of radioligand binding ([8]; FlashPlate): − (“−” indicates less than 50% inhibition at 10 μM)
- A6: inhibition of radioligand binding ([9]; [125I]-S36057, FlashPlate): − (“−” indicates less than 50% inhibition at 10 μM)
- A9: inhibition of radioligand binding ([10]; FlashPlate): − (“−” indicates less than 50% inhibition at 10 μM)
- A1: inhibition of radioligand binding ([11]; FlashPlate): − (“−” indicates less than 50% inhibition at 10 μM)

Compound: NCCC(=O)NC1C(OCc2ccccc2)OC(COCc2ccc(Cl)cc2)C(O)C1OCc1ccccc1 (stereo not shown) [compound 371]
- A2: inhibition of radioligand binding, human κ-opioid (KOP) [1]: − (“−” indicates less than 50% inhibition at 10 μM)
- A5: inhibition of radioligand binding, human melanocortin (MC5) [2]: − (“−” indicates less than 50% inhibition at 10 μM)
- A4: inhibition of radioligand binding, human melanocortin (MC4) [3]: − (“−” indicates less than 50% inhibition at 10 μM)
- A8: inhibition of radioligand binding, human neurokinin (NK1) [4]: + (“+” indicates greater than 50% inhibition at 10 μM)
- A10: inhibition of radioligand binding, human opioid (ORL1) [5]: − (“−” indicates less than 50% inhibition at 10 μM)
- A11: inhibition of radioligand binding, mouse urotensin (mUR2) [6]: − (“−” indicates less than 50% inhibition at 10 μM)
- A3: inhibition of radioligand binding, human melanocortin (MC3) [7]: − (“−” indicates less than 50% inhibition at 10 μM)
- A7: inhibition of radioligand binding, human μ-opioid (MOP) [8]: − (“−” indicates less than 50% inhibition at 10 μM)
- A6: inhibition of radioligand binding, human melanin-concentrating hormone (MCH1) ([9]; [125I]-S36057): − (“−” indicates less than 50% inhibition at 10 μM)
- A9: inhibition of radioligand binding, human neuropeptide Y (NPY-Y1) [10]: − (“−” indicates less than 50% inhibition at 10 μM)
- A1: inhibition of radioligand binding, human δ-opioid (DOP) [11]: − (“−” indicates less than 50% inhibition at 10 μM)

Compound: COCC1OC(OCc2ccc(Cl)cc2)C(NC(=O)CCCN)C(OCc2ccccc2)C1O (stereo not shown) [compound 197]
- A2: inhibition of radioligand binding ([1]; filtration): − (“−” indicates less than 50% inhibition at 10 μM)
- A5: inhibition of radioligand binding ([2]; FlashPlate): − (“−” indicates less than 50% inhibition at 10 μM)
- A4: inhibition of radioligand binding ([3]; FlashPlate): − (“−” indicates less than 50% inhibition at 10 μM)
- A8: inhibition of radioligand binding ([4]; filtration): + (“+” indicates greater than 50% inhibition at 10 μM)
- A10: inhibition of radioligand binding ([5]; FlashPlate): − (“−” indicates less than 50% inhibition at 10 μM)
- A11: inhibition of radioligand binding ([6]; FlashPlate): − (“−” indicates less than 50% inhibition at 10 μM)
- A3: inhibition of radioligand binding ([7]; FlashPlate): − (“−” indicates less than 50% inhibition at 10 μM)
- A7: inhibition of radioligand binding ([8]; FlashPlate): − (“−” indicates less than 50% inhibition at 10 μM)
- A6: inhibition of radioligand binding ([9]; [125I]-S36057, FlashPlate): − (“−” indicates less than 50% inhibition at 10 μM)
- A9: inhibition of radioligand binding ([10]; FlashPlate): − (“−” indicates less than 50% inhibition at 10 μM)
- A1: inhibition of radioligand binding ([11]; FlashPlate): − (“−” indicates less than 50% inhibition at 10 μM)
